For experiment [1], the target named is Chymotrypsin-like elastase family member 1 (Bos taurus, UniProt Q28153). The experiment in a line: Protease Inhibition Assays. The conditions noted are these: 37 °C. As to the method:
(§1) The inhibition assays were performed in 96-well microtiter plates as follows: 30 uL of the enzyme solution (trypsin [100 ug/mL] or elastase [1.5 U/mL]) and 60 uL of the buffer (50 mM Tris-HCl, 20 mM CaCl2 at pH 7.5) were pipetted into a series of six wells. A total of 10 uL of a 2000 uM peptide solution (microviridin variant) was then added to well 1 and serially diluted up to well 5; well 6 was used as the control. After completing the serial dilution of the sample, 10 uL was taken from well 5 and discarded to maintain the same volume in all wells. The plates were then incubated for 5 min at 37 °C, and subsequently 90 uL of the substrate solution (trypsin assay, N-benzoyl-DL-arginine-4-nitroanilide hydrochloride (BAPNA) [2.17 mg mL-1]; elastase assay, succinyl-Ala-Ala-Ala-p-nitroanilide (Suc-ALA3-pNA) [1 mg mL-1]) was added to each well. The enzymatic activity was measured spectrophotometrically (Varioscan Flash, Thermo Scientific) at 410 nm after incubation at 37 °C for 15 m

Experiment [2] has as its target T1, Serine protease 1 (Bos taurus, UniProt P00760).
T1 sequence (P00760 whole entry): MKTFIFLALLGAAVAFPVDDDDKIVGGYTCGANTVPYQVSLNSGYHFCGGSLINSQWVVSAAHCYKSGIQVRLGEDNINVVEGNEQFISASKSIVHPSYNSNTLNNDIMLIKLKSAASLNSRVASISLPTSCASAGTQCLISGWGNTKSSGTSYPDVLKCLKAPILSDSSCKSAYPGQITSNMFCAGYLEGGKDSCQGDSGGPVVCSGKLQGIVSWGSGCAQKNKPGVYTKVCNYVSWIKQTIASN
Put plainly: Protease Inhibition Assays. Conditions: 37 °C. Here is the method:
as §1

Where a SMILES comes first, the peptide text is derived from it. Bridges are numbered along the chain shown (N, C = ends). [ ]: non-standard residue; d: D form. ξ: configuration not given here. Thr(3ξ) = CC(O)[C@H](N)C(=O)O; hLys = NCCCCC[C@H](N)C(=O)O

Sequence of Chymotrypsin-like elastase family member 1 (Q28153 whole entry): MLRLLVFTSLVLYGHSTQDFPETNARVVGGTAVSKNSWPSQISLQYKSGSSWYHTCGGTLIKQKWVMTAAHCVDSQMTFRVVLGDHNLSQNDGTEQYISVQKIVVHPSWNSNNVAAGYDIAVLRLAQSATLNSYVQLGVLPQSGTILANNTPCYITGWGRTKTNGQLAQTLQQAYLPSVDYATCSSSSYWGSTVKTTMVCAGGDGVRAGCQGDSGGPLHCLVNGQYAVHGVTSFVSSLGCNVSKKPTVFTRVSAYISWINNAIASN

Turning to `CC(C)C[C@@H]1NC(=O)[C@@H](NC(=O)[C@H](C)N)C(C)OC(=O)C[C@@H]2NC(=O)[C@@H]3COC(=O)CC[C@H](NC(=O)[C@H](Cc4c[nH]c5ccccc45)NC2=O)C(=O)N[C@H](C(=O)N[C@@H](Cc2ccc(O)cc2)C(=O)O)CCC(=O)NCCCC[C@H](NC1=O)C(=O)N[C@@H](Cc1ccc(O)cc1)C(=O)N1CCC[C@H]1C(=O)N3` (some centres undefined) [MdnA8] (H-A[Thr(3ξ)]LKYPSDWEEY-OH; ester 2-8, 7-10; lactam 4-11), the IC50 (as a rule, the concentration needed to halve the response being measured) in experiment [1] amounted to 21800 nM. Same read-out and setting: with `CC(C)C[C@@H]1NC(=O)[C@@H](NC(=O)[C@H](CC(N)=O)NC(=O)[C@H](CCC(N)=O)NC(=O)[C@@H](N)Cc2ccc(O)cc2)C(C)OC(=O)C[C@@H]2NC(=O)[C@@H]3COC(=O)CC[C@H](NC(=O)[C@H](Cc4c[nH]c5ccccc45)NC2=O)C(=O)N[C@H](C(=O)N[C@@H](Cc2ccc(O)cc2)C(=O)O)CCC(=O)NCCCC[C@H](NC1=O)C(=O)N[C@@H](Cc1ccc(O)cc1)C(=O)N1CCC[C@H]1C(=O)N3` (some centres undefined) [MdnA7] (H-YQN[Thr(3ξ)]LKYPSDWEEY-OH; ester 4-10, 9-12; lactam 6-13) the figure was 1050 nM.

As for `CC(C)[C@H](NC(=O)[C@@H](N)Cc1ccc(O)cc1)C(=O)N[C@@H]1C(=O)N[C@@H](CCCCCN)C(=O)N[C@H]2CCCCNC(=O)CC[C@@H](C(=O)N[C@@H](Cc3ccc(O)cc3)C(=O)O)NC(=O)[C@@H]3CCC(=O)OC[C@H](NC(=O)[C@@H]4CCCN4C(=O)[C@H](Cc4ccc(O)cc4)NC2=O)C(=O)N[C@@H](CC(=O)OC1C)C(=O)N[C@@H](Cc1c[nH]c2ccccc12)C(=O)N3` (some centres undefined) [MdnA6] (H-YV[Thr(3ξ)][hLys]KYPSDWEEY-OH; ester 3-9, 8-11; lactam 5-12), half-maximal inhibition in experiment [2] (IC50) was put at 21.5 nM.

For `CC(C)[C@H](NC(=O)[C@@H](N)[C@@H](C)O)C(=O)N[C@@H]1C(=O)N[C@@H](CCCNC(=N)N)C(=O)N[C@H]2CCCCNC(=O)C[C@@H](C(=O)N[C@@H](Cc3ccc(O)cc3)C(=O)O)NC(=O)[C@@H]3CCC(=O)OC[C@H](NC(=O)[C@@H]4CCCN4C(=O)[C@H](Cc4ccc(O)cc4)NC2=O)C(=O)N[C@@H](CC(=O)OC1C)C(=O)N[C@@H](Cc1c[nH]c2ccccc12)C(=O)N3` (some centres undefined) [MdnA3] (H-TV[Thr(3ξ)]RKYPSDWEDY-OH; ester 3-9, 8-11; lactam 5-12), 28.4 nM corresponded to half-maximal inhibition in experiment [2] (IC50).

The values above are taken from BindingDB's records for doi:10.1021/acschembio.7b00124 (University of Helsinki, 2017).
